Assays:
Staphylococcus aureus = assay: Cell viability (colony count) after methanol exposure; type: cell-based; details: maximum of 30 (v/v) % methanol, 1 minute; colony count at 0% methanol = 100%
Protocol: (§1) 10 μL of a cell suspension and 90 μL of methanol, the concentration of which had been adjusted, were mixed, thereby preparing 100 μL of a cell/methanol suspension. The final methanol concentrations ranged from 0 to 80 (v/v) %. As microorganisms (cells), Bacillus subtilis (bacterium, spores, ATCC 6633), Staphylococcus aureus (bacterium, aerobic, ATCC 6538), and Candida albicans (fungus, yeast, ATCC 10231) were used. Each cell suspension was mixed with methanol and then the mixture was left to stand for 1 minute. In the case of bacteria, the mixture was applied and spread over R2A medium (Nissui Pharmaceutical Co., Ltd.) and then cultured at 25° C. for 7 days. In the case of fungi, the mixture was applied and spread over PDA medium (Nissui Pharmaceutical Co., Ltd.) and then cultured at 25° C. for 5 days. After culture, the colony count was then measured according to each methanol concentration. The colony count in the case of 0% methanol was designated as 100% cell viability. Cell viability according to each methanol concentration was examined.

Candida albicans = assay: as above; type: cell-based; details: maximum of 30 (v/v) % methanol, 1 minute; colony count at 0% methanol = 100%
Protocol: as §1

Bacillus subtilis = assay: as above; type: cell-based; details: 80 (v/v) % methanol, 1 minute; colony count at 0% methanol = 100%
Protocol: as §1

ATPase = assay: Residual ATPase activity according to methanol concentrations; type: biochemical; details: 37° C. for 30 minutes
Protocol: 10 μL of an ATPase-containing ATP elimination solution (Kikkoman Biochemifa Company, ATP elimination reagent included with a Lucifer HS set) was mixed with 80 μL of methanol, the concentration of which had been adjusted. An ATP solution (2×10^6 amol/10 μL) was added to the solution and then it was left to stand at 37° C. for 30 minutes. In addition, the final methanol concentrations were adjusted to 0.1 to 80 (v/v) %.
To measure the remaining ATP level after the addition of the above mixture to a luminescent reagent, the mixture was diluted in water to a methanol concentration of 0.1 (v/v) % or less, assuring that the methanol would not affect the ATP luminescent reaction (Reference Example 2, Table 2). Subsequently, 50 μL of the diluted solution (1×10^3 amol ATP/50 μL) was added to 50 μL of the luminescent reagent, and then the luminescence level was measured. Furthermore, an ATP solution (1×10^3 amol/50 μL) to which no ATPase had been added was prepared. The luminescence level according to the ATP solution was also measured. The luminescence level of the ATPase-free ATP solution was considered almost the same as that of an ATP solution to which ATP had been added after the loss of ATPase activity.

[1] = system: Methylobacterium extorquens; assay: Intracellular ATP level by ATP luminescence method; type: cell-based
Protocol: An M. extorquens cell suspension was prepared according to the following procedures. M. extorquens was cultured with agitation in 5 mL of SCD liquid medium (Nissui Pharmaceutical Co., Ltd.) for 72 hours at 25° C. The culture solution (medium) was dispensed into tubes, and then centrifuged for 10 minutes at 10000 rpm, so as to collect cells onto the tube bottoms. Supernatant was removed, and then water was added instead, to suspend cells. Centrifugation was performed again for 10 minutes at 10000 rpm, so as to collect cells onto the tube bottoms. This step was repeated 3 times, medium components were removed, and thus a cell suspension was prepared. Subsequently, the cells were cultured with agitation in water for injection for 3 days at 37° C., so that a cell suspension for ATP luminescence measurement was prepared. […]
Reagents included in a Lucifer HS set (Kikkoman Biochemifa Company) were used as reagents for ATP luminescence measurement. In addition, the Lucifer HS set comprises an ATP elimination enzyme, an ATP extraction reagent, and a luminescent reagent included therewith. […]
100 μL of an ATP extraction solution was added to 100 μL of the mixture after heating. 50 μL of each sample after ATP extraction was added to 50 μL of the luminescent reagent. The thus generated luminescence was measured.
10 μL each of glucose (Wako Pure Chemical Industries, Ltd.), alanine (Wako Pure Chemical Industries, Ltd.), ATPase, 10% methanol, and a phosphate buffer (pH 7.4) (Invitrogen) were added to 50 μL of the M. extorquens cell suspension, thereby preparing a total of 100 μL of a mixture. When glucose, alanine, and methanol were not added, the solution was adjusted to a total 100 μL volume with a phosphate buffer (Table 3, sample Nos. 1 to 5). The mixture was heated at 37° C. for 30 minutes. In the extracellular ATP removal•intracellular ATP increase step (for removing ATP outside of viable cells and increasing ATP within viable cells), 100 μL of an ATP extraction solution was added to 100 μL of the mixture (Table 3, sample Nos. 1 to 4). For comparison of the ATP extraction efficiency of methanol, in the ATP extraction step, 100 μL, of the mixture was mixed with 100 μL of a 1% methanol-containing ATP extraction solution (Table 3, sample No. 5). After ATP extraction, 50 μL of the sample was added to 50 μL of the luminescent reagent, and then the thus generated luminescence was measured. […]
10 μL each of glucose, alanine, ATPase, and if necessary, 10 (v/v) % methanol were added to 50 μL of the M. extorquens cell suspension. Finally, a phosphate buffer (pH 7.4) (Invitrogen) was added for adjustment to a total 100 μL volume. The final concentrations of glucose and alanine ranged from 0.1 mM to 100 mM, and the final concentrations of ATPase and methanol were 10 (v/v) % and 1 (v/v) %, respectively. Each mixture was heated at 37° C. for 30 minutes. 100 μL of an ATP extraction solution was added to 100 μL of the heated mixture, and then 50 μL of sample after ATP extraction was added to 50 μL of a luminescent reagent. The thus generated luminescence was measured.
10 μL each of glucose, alanine, ATPase, and methanol were added to 50 μL of the M. extorquens cell suspension. Finally, a phosphate buffer (pH 7.4) (Invitrogen) was added for adjustment to a total 100 μL volume. The final concentrations of glucose and alanine were each 0.1 mM, the final ATPase concentration was 10 (v/v) %, and the final methanol concentrations ranged from 0% to 80%. Each mixture was heated at 37° C. for 30 minutes. After heating, to remove methanol-containing mixtures, all mixtures were subjected to centrifugal filtration (1 min, 2000 rpm) using Ultrafree-MC, and then mixtures as filtrates were discarded. Subsequently, 200 μL of water was added onto the filter and filtrated to wash the filter. In addition, washing was repeated 5 times. […]

[2] = system: ATP•luciferase•luciferin reaction; assay: Effect of methanol on ATP luminescent reaction; type: biochemical; details: 1000 amol ATP/50 μL; for Relative luminescence: methanol-free ATP solution = 100
Protocol: 1 mL of an ATP solution (2×10^5 amol ATP/mL, Kikkoman Biochemifa Company Lucifer ATP standard reagent set) was mixed with 10 μl to 5 mL of 100% methanol (Wako Pure Chemical Industries, Ltd.). Water (Invitrogen) was further added to each solution, and thus ATP/methanol solutions (10 mL each) with final methanol concentrations ranging from 0.1 to 50 (v/v) % were prepared (ATP concentration: 2×10^4 amol ATP/mL). Subsequently, 50 μL of the ATP/methanol solution and 50 μL of a luminescent reagent (Kikkoman Biochemifa Company, included with a Lucifer HS set) were mixed to cause a luminescent reaction to take place. The resulting luminescence levels were measured by photocounting using a photomultiplier.
For comparison, 1 mL of a methanol-free ATP solution (2×10^4 amol ATP/mL) was prepared. Subsequently, 50 μL of an ATP solution and 50 μL of the luminescent reagent were mixed to cause a luminescent reaction to take place, and then the luminescence level was measured.

## CO [Methanol, methanol]
Staphylococcus aureus
  Cell viability of S. aureus: ≥ 90%
Candida albicans
  Cell viability of C. albicans: ≥ 90%
Bacillus subtilis
  Cell viability of B. subtilis: 100%
ATPase; methanol concentration 80 (v/v) %
  Residual ATPase activity: 20%
ATPase; methanol concentrations 0 to 50 (v/v) %
  Residual ATPase activity: retained the activity
[1]; 1% methanol added to 0.1 mM alanine and 0.1 mM glucose (FIG. 4C)
  Intracellular ATP level of M. extorquens: 1.2 amol/CFU
[1]; methanol 0.1% to 20%, 0.1 mM glucose, 0.1 mM alanine, 10% ATPase, filtration
  Intracellular ATP level of M. extorquens, % of the maximum: ≥ 70%
[1]; methanol 0.1% to 20%, 0.1 mM glucose, 0.1 mM alanine, 10% ATPase, filtration (FIGS. 5A and B)
  Intracellular ATP level of M. extorquens: 1.1 amol/CFU
[1]; methanol 0.5%, 0.1 mM glucose, 0.1 mM alanine, 10% ATPase, filtration (FIG. 5A)
  Intracellular ATP level of M. extorquens: 1.5 amol/CFU
[1]; methanol 30% or more, 0.1 mM glucose, 0.1 mM alanine, 10% ATPase, filtration (FIG. 5B)
  Intracellular ATP level of M. extorquens: 0.15 amol/CFU
[1]; methanol 30% or more, relative to the maximum at 0.5% methanol
  Decrease of intracellular ATP level of M. extorquens: 90%
[2]; 0.1% Methanol
  Luminescence level: 12703 CPS
  Relative luminescence: 110%
[2]; 1% Methanol
  Luminescence level: 10200 CPS
  Relative luminescence: 88%
[2]; 10% Methanol
  Luminescence level: 3345 CPS
  Relative luminescence: 29%
[2]; 50% Methanol
  Luminescence level: 13 CPS
  Relative luminescence: 0%
[2]; 50% Methanol, listed as methanol
  Luminescence level: almost no fluorescence

## C[C@H](N)C(=O)O [alanine]
[1]; alanine 1 mM or less in the presence of 1 (v/v) % methanol and 100 mM glucose (FIG. 4A)
  Intracellular ATP level of M. extorquens: 0.9 amol/CFU

## O=C[C@H](O)[C@@H](O)[C@H](O)[C@H](O)CO [glucose]
[1]; glucose varied 0.1 mM to 100 mM in the presence of 1 (v/v) % methanol and 50 mM alanine (FIG. 4B)
  Intracellular ATP level of M. extorquens: about 0.5 amol/CFU
